{
  "source": "ChEMBL document CHEMBL4765339",
  "about": "“Design, synthesis, and biological evaluation of 4-substituted-3,4-dihydrobenzo[h]quinoline-2,5,6(1H)-triones as NQO1-directed antitumor agents” (Eur J Med Chem, 2020)",
  "key": {"HepG2 [1]": {"tested_on": "HepG2", "test": "Induction of ROS generation in human HepG2 cells at 5 uM incubated for 5 hrs in presence of dicoumarol by DCFH-DA staining based flow cytometry analysis", "assay_type": "functional, cell-based"}, "A549": {"tested_on": "A549", "test": "Cytotoxicity against human A549 cells assessed as reduction in cell growth pretreated for 1 hr with NQO1 inhibitor, dicoumarol followed by incubation with compound for 48 hrs by MTT assay", "assay_type": "functional"}, "HepG2 [2]": {"tested_on": "HepG2", "test": "Induction of apoptosis in human HepG2 cells assessed as late apoptotic cells at 2.2 uM incubated for 24 hrs by annexinV-FITC and PI staining based flow cytometry analysis (reference value: 2.27 %)", "assay_type": "functional"}, "HepG2 [3]": {"tested_on": "HepG2", "test": "Induction of cell cycle arrest in human HepG2 cells assessed as accumulation at S/G2 phase at 3 uM incubated for 24 hrs by PI staining based flow cytometry analysis (reference value: 35.2 %)", "assay_type": "functional"}, "HepG2 [4]": {"tested_on": "HepG2", "test": "Induction of apoptosis in human HepG2 cells assessed as early apoptotic cells at 2.2 uM incubated for 24 hrs in presence of dicoumarol by annexinV-FITC and PI staining based flow cytometry analysis (reference value: 2.65 %)", "assay_type": "functional"}, "[5]": {"target": "NAD(P)H dehydrogenase [quinone] 1 (Homo sapiens) (UniProt P15559)", "test": "Activation of recombinant human C-terminal His-tagged NQO1 (1 to 274 residues) expressed in Escherichia coli assessed as cytochrome c reduction using menadione as substrate in presence of NADPH by spectrophotometry", "settings": "filed as activator, dose 12.5-50 µM"}, "[6]": {"target": "NAD(P)H dehydrogenase [quinone] 1 (Homo sapiens) (UniProt P15559)", "test": "Substrate activity at recombinant human C-terminal His-tagged NQO1 (1 to 274 residues) expressed in Escherichia coli assessed as enzyme activity by measuring oxidation of NADPH incubated for 5 mins measured every 5 sec for 1 mins by UV-visible spectrophotometry relative to beta-lapachone"}, "HepG2 [7]": {"tested_on": "HepG2", "test": "Induction of apoptosis in human HepG2 cells assessed as early apoptotic cells at 2.2 uM incubated for 24 hrs by annexinV-FITC and PI staining based flow cytometry analysis (reference value: 2.65 %)", "assay_type": "functional"}, "HepG2 [8]": {"tested_on": "HepG2", "test": "Antitumor activity against human HepG2 cells xenografted in athymic nude mouse assessed as inhibition of tumor growth at 20 mg/kg, iv administered once every 2 days for 19 days by caliper analysis relative to control", "assay_type": "functional", "settings": "456 h, time 19 day"}, "HepG2 [9]": {"tested_on": "HepG2", "test": "Induction of cell cycle arrest in human HepG2 cells assessed as increase in accumulation at S/G2 phase incubated for 24 hrs by PI staining based flow cytometry analysis", "assay_type": "functional", "settings": "dose 0.75-3 µM"}, "HepG2 [10]": {"tested_on": "HepG2", "test": "Antitumor activity against human HepG2 cells xenografted in athymic nude mouse assessed as inhibition of tumor growth administered intravenously once every 2 days for 19 days by caliper analysis", "assay_type": "functional, cell-based", "settings": "dose 10-20 mg/kg, time 19.0 day"}, "[11]": {"test": "Cytotoxicity against human L02 cells assessed as reduction in cell growth incubated for 48 hrs by MTT assay", "assay_type": "cell-based"}},
  "note": "Calls of active or inactive are those of the source. The calls are words filed in the database; no cut-off is given here.",
  "data": [
    {"smiles": "COc1ccc(C2CC(=O)NC3=C2C(=O)C(=O)c2ccccc23)cc1O", "note": "(configuration not stated)", "values": [
      {"measurement": "Activity", "setting": "HepG2 [1]", "result": "inactive"},
      {"measurement": "GI50", "setting": "A549", "result": 5.3, "unit": "µM"},
      {"measurement": "Activity", "setting": "HepG2 [2]", "result": 12.2, "unit": "%"},
      {"measurement": "Activity", "setting": "HepG2 [3]", "result": 41.4, "unit": "%"},
      {"measurement": "Activity", "setting": "HepG2 [4]", "result": 8.28, "unit": "%"},
      {"measurement": "Activity", "setting": "[5]", "result": "Dose-dependent effect"},
      {"measurement": "fold change (FC)", "setting": "[6]", "result": "> 2"},
      {"measurement": "Activity", "setting": "HepG2 [7]", "result": 10.85, "unit": "%"},
      {"measurement": "inhibition in vivo at 20 mg/kg", "setting": "HepG2 [8]", "result": 50.3, "unit": "%"},
      {"measurement": "Activity", "setting": "HepG2 [9]", "result": "Dose-dependent effect"},
      {"measurement": "TGI", "setting": "HepG2 [10]", "result": "Dose-dependent effect"},
      {"measurement": "GI50 at 48 h", "setting": "[11]", "result": 4.36, "unit": "µM"}
    ]}
  ]
}
